For series [1], the system named is humans. The note with it: cited from earlier work.
The next series concerns prostaglandin synthesis. The note with it: animals with inflammation; cited from earlier work.
The subject of series [2] is afferent nerves of the feet of female Rhesus monkeys. The experiment in a line: Analgesia test: threshold voltage for stimulus response on electrical stimulation of the feet of female Rhesus monkeys. It is filed as in vivo, Rhesus monkeys (macaca mulatta). The note with it: for Median percentage change in the threshold voltage: ibuprofen forms 50 mg/kg, acetylsalicylic acid 100 mg/kg; for change in the threshold voltage (in words) / increase of the threshold voltage / time to achieve the increase of threshold voltage / analgetic effect (in words): 50 mg/kg ibuprofen form. The method, then:
In this test the afferent nerves of the feet of female Rhesus monkeys were electrically stimulated. For the test four adult female Rhesus monkeys (macaca mulatta) were used.
The monkeys were trained in such a way that they sat in chairs wearing an aluminium foil shoe during the test.
On the days when the test was carried out the monkeys were sat in these stools. One foot of each monkey was smeared with electrode gel and the aluminium shoe was fitted over it.
A Grass-stimulator (S 88) was connected to the monkeys via a multiple-way switch (the positive lead was connected to the aluminium shoe, the negative lead to the chair). An electrical stimulation, each time of 2 seconds duration with a frequency of 60 Hz was applied (the magnitude of stimulation was altered by adjusting the voltage supplied to the stimulator; the corresponding current was measured by means of an ammeter connected in series).
The stimulus required to achieve a stimulus threshold was determined. For this purpose the voltage was raised stepwise. The threshold voltage was taken as the lowest voltage at which bending of the toes or twisting of the foot occurred.
Before application of the medicament the animals were allowed to acclimatize for at least one hour. During this period the threshold voltage was determined at 10 minute intervals until steady readings were obtained.
Following the acclimatization period the carrier material or the active ingredient were orally administered. The threshold voltage required to effect a stimulus response in the foot of each monkey was determined at 30 minute intervals for 3 hours and then after 4 and 5 hours after administration of the active ingredient.
The observer and the stimulation apparatus were concealed behind a one-way mirror.
Between the individual tests there was an interval of at least one week.
The active ingredients 1 to 4 were prepared for oral administration by suspending them in 1.0% w/v Tragacanth. The medicaments were prepared directly before use and administered in a dose of 4 ml/kg.

For series [3] the following is noted: human, oral.
For series [4] the following is noted: metabolites excreted in the urine; cited from earlier work.
In series [5] the test system is humans. Description: Analgetic activity in humans. It is filed as in vivo. The note with it: no data given.
Setting [6] is: 0,5 h after oral administration.
Setting [7] is: 1,0 h after oral administration, *P < 0,05 vs carrier (Mann-Whitney U) over (+)-S-Ibuprofen and acetylsalicylic acid.
Where [8] appears, read: 1,5 h after oral administration, *P < 0,05 vs carrier (Mann-Whitney U) over (+)-S-Ibuprofen.
The mark [9] stands for this setting: 2,0 h after oral administration.
The mark [10] stands for this setting: 2,5 h after oral administration.
[11] abbreviates: 3,0 h after oral administration.
Where [12] appears, read: 4,0 h after oral administration.
Setting [13] is: 5,0 h after oral administration.
[14] abbreviates: oral, 100 mg/kg acetylsalicylic acid.

In the case of `CC(C)Cc1ccc(C(C)C(=O)O)cc1` (racemic) [(±)-ibuprofen, 2-(4-Isobutylphenyl)-propionic acid], the “known period of action” value with humans [1] (human) is listed as “ca. 6 hours”. The side effects result in the series with humans [1] (in vivo) is “usual unwanted side effects of NSAR”. Besides, the “therapeutic effect in humans” value in the series with humans [1] (therapy of humans) was “reduces pain, swelling and fever caused by inflammation”. Besides, the “inhibition of prostaglandin synthesis” value with prostaglandin synthesis is on record as “effective in inhibiting prostaglandin synthesis”. Also, the “Median percentage change in the threshold voltage” value (from here on “Median percentage change”) is listed as “+6,4%” in series [2] (setting [6]); “+8,4%” in series [2] (setting [7]); “+15,7%” in series [2] (setting [8]); “+15,7%” in series [2] (setting [9]); “+8,5%” in series [2] (setting [10]); “+18,1%” in series [2] (setting [11]). Moreover, the “Median percentage change” value in series [2] (setting [12]) is “+9,7%”; in series [2] (setting [13]), “+17,0%”. Moreover, the “change in the threshold voltage (in words)” value (“change … (in words)” for short) in series [2] (oral) was “the level remained during the rest of the test period”. Also, the “increase of the threshold voltage” value in series [2] (oral) was “approximately 15%”. Moreover, the “time to achieve the increase of threshold voltage” value in series [2] (oral) is no more than 90 min. Moreover, the “analgetic effect (in words)” value is reported as “analgetic activity was assumed” in series [2] (oral, listed as ibuprofen racemate, 50 mg/kg) and “weak but long-lasting analgetic effect” in series [2] (oral, listed as racemate, 50 mg/kg). Further, the “difference between the median change between ibuprofen racemate and carrier” value in series [2] (oral, 50 mg/kg, every time after 90 minutes with the exception of 150 minutes) is “more than 20%”.
As to `CC(C)Cc1ccc([C@@H](C)C(=O)O)cc1` [(R)-(-)-ibuprofen], the “late plasma levels as % of the maximum level” value in series [3] (after the first 4 to 6 hours) is recorded as “less than 10%”. Also, the “plasma levels relative to those after administration of the (S)-(+)-form” value in series [3] (only after the first 4 to 6 hours) is given as “equally high or higher levels”. Also, in series [4], the “conversion to the active (S)-(+)-enantiomer in vivo” value is “converted to the active (S)-(+)-enantiomer in vivo”. Besides, the “Median percentage change” value is -5,7% in series [2] (setting [6]); “+4,0%” in series [2] (setting [7]); “+4,5%” in series [2] (setting [8]); “+0,5%” in series [2] (setting [9]); -4,7% in series [2] (setting [10]); -7,0% in series [2] (setting [11]). For the same molecule, the “Median percentage change” value in series [2] (setting [12]) is reported as -2,3%; in series [2] (setting [13]) it was -3,4%. Further, in series [2] (oral), the “analgetic effect (in words)” value was “inactive”. Also, the “change … (in words)” value in series [2] (oral) is “no significant change in the threshold voltage”.
With `CC(C)Cc1ccc([C@H](C)C(=O)O)cc1` [(S)-(+)-ibuprofen], in the series with humans [5], the “reduced dose requirement versus racemate shown in humans” value is reported as “could also be shown in humans”. Also, the “Median percentage change” value in series [2] (setting [6]) was “+9,5%”; in series [2] (setting [7]), “+33,5%”; in series [2] (setting [8]) it was “+51,2%”; in series [2] (setting [9]), “+53,9%”; in series [2] (setting [10]) it was “+45,5%”; in series [2] (setting [11]), “+42,3%”. The figures for the “Median percentage change” value in series [2] (setting [12]) and in series [2] (setting [13]) were “+33,7%” and “+38,2%”, respectively. In addition, in series [2] (analgesia tests on monkeys), the “amount of (S)-(+)-ibuprofen required relative to racemic ibuprofen to give a given analgetic activity” value is listed as “less than half as much”. In series [2] (oral), the “analgetic effect (in words)” value was “notable analgesic effect which was maintained for several hours”. Besides, the “change … (in words)” value in series [2] (oral) is on record as “the threshold voltage remained elevated during the rest of the test period”. The “increase of the threshold voltage” value in series [2] (oral) was roughly 50%. Moreover, the “time to achieve the increase of threshold voltage” value in series [2] (oral) came to 90 min.
In the case of `CC(=O)Oc1ccccc1C(=O)O` [Acetylsalicylic acid], the “Median percentage change” value was “+35,8%” in series [2] (setting [6]); “+56,6%” in series [2] (setting [7]); “+41,4%” in series [2] (setting [8]); “+80,4%” in series [2] (setting [9]); “+74,6%” in series [2] (setting [10]); “+72,8%” in series [2] (setting [11]). Further, the “Median percentage change” value in series [2] (setting [12]) is listed as “+66,1%”; in series [2] (setting [13]), “+59,8%”. For the same molecule, the “increase of the threshold voltage required for a stimulus response” value in series [2] (setting [14]) is given as roughly 80%. The “time to achieve the level of analgesia” value in series [2] (setting [14]) is no more than 2 h. Further, the “threshold voltage increase remaining throughout the duration of the test” value in series [2] (oral, 100 mg/kg acetylsalicylic acid, after level achieved, up to 5 h) is reported as “above 60%”.

The values are drawn from patent US5519057A, “Ibuprofen-containing medicament” (priority 1986, dated 1996).
